Results as given in PubChem BioAssay (NCI).
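Briefly, cells in 96-well plates were exposed to five compound concentrations for 48 h, and endpoints were estimated by linear interpolation. Definition used: TGI = concentration required for complete inhibition of growth.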

How the values were obtained:
Test in all cases: NCI-60 cell line screen, 48 h
[1] = test system: 786-0 renal
[2] = test system: A498 renal
[3] = test system: CCRF-CEM leukemia
[4] = test system: COLO 205 colon
[5] = test system: DU-145 prostate
[6] = test system: HOP-92 NSCLC
[7] = test system: HS 578T breast
[8] = test system: MALME-3M melanoma
[9] = test system: NCI-H226 lung
[10] = test system: NCI-H23 lung
[11] = test system: NCI-H460 lung
[12] = test system: NCI-H522 lung
[13] = test system: OVCAR-5 ovarian
[14] = test system: SF-295 CNS
[15] = test system: SNB-19 CNS
[16] = test system: TK-10 renal
[17] = test system: UACC-62 melanoma
[18] = test system: UO-31 renal

Row | SMILES | TGI [1] | TGI [2] | TGI [3] | TGI [4] | TGI [5] | TGI [6] | TGI [7] | TGI [8] | TGI [9] | TGI [10] | TGI [11] | TGI [12] | TGI [13] | TGI [14] | TGI [15] | TGI [16] | TGI [17] | TGI [18]
1 | O=c1[nH]nc(-c2ccccc2)n1/N=C/c1ccccc1Cl | > 100 µM | > 100 µM | > 100 µM | > 100 µM | > 100 µM | > 100 µM | > 100 µM | 86.4 µM | > 100 µM | 87.7 µM | 32.2 µM | 43.9 µM | > 100 µM | > 100 µM | > 100 µM | > 100 µM | 46.5 µM | > 100 µM
2 | CC(=O)c1ccc2c(c1)CC1(C2)Cc2ccc3c(c2C1=O)CCC3 (stereo unspecified) | 40.8 µM | > 100 µM | > 100 µM | 39.9 µM | > 100 µM | 41.2 µM | > 100 µM | 57 µM | > 100 µM | > 100 µM | > 100 µM | 54.6 µM | > 100 µM | > 100 µM | > 100 µM | 64.2 µM | 74.7 µM | > 100 µM
3 | C#Cc1cc(Br)c(OC(=O)C(C)(C)C)c(-c2cc(C#C)cc(Br)c2OC(=O)C(C)(C)C)c1 | > 100 µM | > 100 µM | 36.1 µM | > 100 µM | > 100 µM | > 100 µM | > 100 µM | > 100 µM |  | > 100 µM | > 100 µM | > 100 µM | 66 µM | > 100 µM | > 100 µM | > 100 µM | > 100 µM | 
4 | COc1cccc(Nc2nc(N)nc(N)c2N)c1 | > 100 µM | > 100 µM | 52.7 µM | > 100 µM | > 100 µM | > 100 µM | > 100 µM | > 100 µM | > 100 µM | > 100 µM | 43.6 µM | > 100 µM | > 100 µM | 60.7 µM | > 100 µM | > 100 µM | > 100 µM | > 100 µM
5 | CSc1nc2c(c(N3CCOCC3)n1)C(O)n1c(nc3ccccc31)S2 (stereo unspecified) | > 100 µM | > 100 µM | > 100 µM |  | > 100 µM | > 100 µM | 92.7 µM | > 100 µM |  | > 100 µM | > 100 µM | > 100 µM | > 100 µM | > 100 µM | > 100 µM | > 100 µM | > 100 µM | > 100 µM
6 | Cc1ccc(OCC2OC(n3cnc4c(Cl)nc(Cl)nc43)CC2Oc2ccc(C)cc2)cc1 (stereo unspecified) | 32.4 µM | 44.8 µM | > 100 µM | 3.73 µM | 3.84 µM | 6.4 µM | 5.21 µM | 5.13 µM | 14.3 µM | 3.91 µM | 3.39 µM | 3.82 µM | 19.1 µM | 5.42 µM | 3.3 µM | 23.3 µM | 4.1 µM | 
7 | CC1=NN(c2nc(N)nc(C/C(N)=N/O)n2)C(C)(C)C1 | > 100 µM | > 100 µM | > 100 µM | > 100 µM | > 100 µM | > 100 µM | > 100 µM | > 100 µM | > 100 µM | > 100 µM | > 100 µM | > 100 µM | > 100 µM | > 100 µM | > 100 µM | > 100 µM | > 100 µM | > 100 µM
8 | Cc1ccnc2[nH]c(-c3ccc(F)cc3)cc(=O)c12 | > 100 µM | 97.9 µM | > 100 µM | > 76.8 µM | > 100 µM | > 100 µM | > 100 µM | > 100 µM | > 100 µM | > 100 µM | > 60.4 µM | > 66.8 µM | > 100 µM | > 100 µM | > 100 µM | > 100 µM | > 100 µM | > 100 µM
9 | CC(C)Oc1cccc(N2C(=NCCc3c[nH]c4ccccc34)Nc3ccncc3S2(=O)=O)c1 | 5.35 µM | > 100 µM | > 100 µM | 4.08 µM | > 100 µM | > 100 µM | > 100 µM | > 100 µM | > 100 µM | > 100 µM | > 100 µM | > 100 µM | > 100 µM | > 100 µM | > 100 µM | > 100 µM | > 100 µM | > 100 µM
10 | CCS(=O)(=O)CCn1c(=O)c2c(ncn2C)n(C)c1=O | > 100 µM | > 100 µM | > 100 µM | > 100 µM | > 100 µM | > 100 µM | > 100 µM | > 100 µM |  | > 100 µM | > 100 µM | > 100 µM | > 100 µM | > 100 µM | > 100 µM | > 100 µM | > 100 µM | > 100 µM
11 | CN(C)c1ccc(C2CC(c3ccc4ccccc4c3O)=NN2c2ccc([N+](=O)[O-])cc2[N+](=O)[O-])cc1 (stereo unspecified) | > 100 µM | > 100 µM | 94.3 µM | > 100 µM | > 100 µM | > 100 µM | > 100 µM | > 100 µM | > 100 µM | 77.7 µM | > 100 µM | > 100 µM | > 100 µM | > 100 µM |  | > 100 µM | 37.2 µM | > 100 µM
12 | COc1cc(/C=C\c2nnc(/C=C\c3ccc(O)c(OC)c3)s2)ccc1O | > 100 µM | 6.4 µM | 14.5 µM | 41.4 µM | 8.26 µM | 42.2 µM | > 37.8 µM | 24 µM | 39 µM | 12.2 µM | > 35.2 µM | 5.57 µM | 48.8 µM | 13.5 µM | > 82.1 µM | > 51.2 µM | 18.8 µM | 15.3 µM
13 | O=C1/C(=C/c2ccc(Oc3ccccc3)cc2)N=C(c2ccccc2)N1c1ccc(S(=O)(=O)Nc2nccs2)cc1 | > 100 µM | 82 µM | > 100 µM | 22.2 µM | > 100 µM | 99.7 µM | > 100 µM | 86.6 µM | > 100 µM | > 100 µM | > 100 µM |  | > 100 µM | 85.5 µM | > 100 µM | > 100 µM | > 100 µM | 78.2 µM
